Laboratory results published in patent publication US10550143B2, “C,O-spiro aryl glycoside compounds, preparation therefor and use thereof” (SHANGHAI INSTITUTE OF MATERIA MEDICA, CHINESE ACADEMY OF …, priority 2015, dated 2020).

What was measured:
[1] = target: T1, human sodium-glucose cotransporter 2 (SGLT2) (Homo sapiens, UniProt P31639); assay: In vitro SGLT2 inhibition, methyl-α-D-[U-14C]glucopyranoside uptake in NIH3T3-hSGLT2 cells; assay type: cell-based; settings: for inhibition at 0.01 µM: SGLT2, 10 nM, read-out: % Inhibition rate ± SD 10 nM; for inhibition at 0.1 µM: SGLT2, 100 nM, read-out: % Inhibition rate ± SD 100 nM; for IC50: read-out: IC50 ± SD SGLT2; for Selectivity: IC50 SGLT1/IC50 SGLT2
T1 construct: expressed in transfected cells; host or cells: NIH3T3 (mouse fibroblast) cells expressing hSGLT2
T1 sequence (P31639 1-672): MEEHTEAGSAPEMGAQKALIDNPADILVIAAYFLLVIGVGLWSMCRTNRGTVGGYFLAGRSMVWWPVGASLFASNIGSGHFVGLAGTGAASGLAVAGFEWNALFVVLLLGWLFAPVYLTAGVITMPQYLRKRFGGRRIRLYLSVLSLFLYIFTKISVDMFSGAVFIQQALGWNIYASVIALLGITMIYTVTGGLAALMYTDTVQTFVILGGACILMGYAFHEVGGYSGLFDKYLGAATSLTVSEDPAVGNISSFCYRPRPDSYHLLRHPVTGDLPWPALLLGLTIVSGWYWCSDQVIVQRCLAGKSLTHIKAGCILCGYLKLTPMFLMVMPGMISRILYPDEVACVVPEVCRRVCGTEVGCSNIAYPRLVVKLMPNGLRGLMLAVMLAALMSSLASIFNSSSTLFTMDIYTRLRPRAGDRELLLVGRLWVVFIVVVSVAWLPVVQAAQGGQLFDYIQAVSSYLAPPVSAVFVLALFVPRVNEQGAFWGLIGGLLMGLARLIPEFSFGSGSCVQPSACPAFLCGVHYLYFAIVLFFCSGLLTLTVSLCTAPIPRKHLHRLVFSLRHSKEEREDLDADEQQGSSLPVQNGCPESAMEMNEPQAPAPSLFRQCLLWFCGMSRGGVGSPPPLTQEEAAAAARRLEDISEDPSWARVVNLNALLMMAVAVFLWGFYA
Experimental: Inhibition of the compounds of formula I against human sodium-glucose cotransporter 2 (SGLT2) was determined experimentally and the experimental procedures were carried out as reference^1.
Methyl-α-D-[U-^14C] glucopyranoside (Perkin Elmer) Dimethylsulfoxide (Genebase, Prod No: 0231)
(1) Primary screening of hSGLT2 are conducted with two concentrations, 100 nM and 10 nM;
SGLT2 transports D-glucose at 1:1 sodium-glucose ratio, glucose is replaced by the non-metabolic and isotope labeled methyl-aD-[U-^14C] glucopyranoside and methyl-aD-glucopyranoside, and the amount of isotope transferred into the cells was determined.
1) 0.2% gelatin in a 96-well plate was put in a 37° C. incubator for further use;
2) NIH3T3-hSGLT2 cells were injected into 96-well plates, 40000/well, and 100 μL culture medium per well:
3) the fluid was changed in the next day, and sodium butyrate was added into medium at a final concentration of 2 mM;
4) wash the cells with 100 μL of KRH—Na^+ for 3 times and incubate cells with 50 μL for 30 minutes. Cells were changed to 50 μL of compound in KRH—Na^+, uptake buffer (KRH—Na^+ and methyl-α-D-[U-^14C]glucopyranoside and ⅙ mM methyl-α-D-glucopyranoside at 10 μL per well) was added; KRH-acetylcholine solution was used as background control instead of KRH-Na^+
5) washed with 100 μL PBS for 3 times, dried, 50 μL lysate and 150 μL scintillation fluid were added, the membrane was covered and flattened, shaken on a shaker to mix thoroughly, centrifuged at 1500 rpm at 4° C. for 3 min, taken out and read;
6) the results were analyses.
The inhibition rate (% Inhibiton) of each sample at each concentration was calculated by dividing the value of the compound well value minus the background value by the value of the DMSO control well value minus the background value.
IC50 is calculated as follows: […]
The y value is the activity or inhibition percent, the x value is the concentration of the corresponding compound, top (the maximum y value of the curve), bottom (the minimum y value of the curve).

[2] = target: T2, hSGLT1 (Homo sapiens, UniProt P13866); assay: In vitro SGLT1 inhibition (hSGLT1 IC50 test); assay type: cell-based; settings: read-out: IC50 ± SD SGLT1
T2 sequence (P13866 1-664): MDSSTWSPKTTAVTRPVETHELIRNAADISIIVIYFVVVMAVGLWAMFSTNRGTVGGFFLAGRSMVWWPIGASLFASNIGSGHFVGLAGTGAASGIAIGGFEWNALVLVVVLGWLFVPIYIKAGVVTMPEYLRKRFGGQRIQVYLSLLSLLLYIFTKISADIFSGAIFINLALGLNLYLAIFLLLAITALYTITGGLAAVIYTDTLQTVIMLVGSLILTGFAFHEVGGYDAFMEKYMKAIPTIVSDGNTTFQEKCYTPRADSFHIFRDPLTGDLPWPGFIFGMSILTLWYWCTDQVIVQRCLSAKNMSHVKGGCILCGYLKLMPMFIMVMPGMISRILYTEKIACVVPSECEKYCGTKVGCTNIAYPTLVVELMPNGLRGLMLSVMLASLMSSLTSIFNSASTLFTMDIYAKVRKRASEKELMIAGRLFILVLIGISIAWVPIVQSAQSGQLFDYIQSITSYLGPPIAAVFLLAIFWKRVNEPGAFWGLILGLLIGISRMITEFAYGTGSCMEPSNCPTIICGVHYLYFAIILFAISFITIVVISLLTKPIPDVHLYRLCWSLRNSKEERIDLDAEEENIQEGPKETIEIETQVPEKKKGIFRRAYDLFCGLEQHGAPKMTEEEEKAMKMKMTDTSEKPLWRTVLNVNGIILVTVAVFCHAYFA

[3] = tested on: SD rats; assay: Acute single administration, urinary glucose changes in SD rats; assay type: in vivo, rat; set-up: Urine glucose concentration / The total amount of glucose excreted: unit not given here; settings: 1 mg/kg oral, after 24 h
Experimental: (1) Acutely Administering Compound to Observed the Urinary Glucose Changes in SD Rats
Thirty-eight male normal SD rats were selected and randomly divided into 5 groups according to body weight and blood glucose, 6-8 in each group. […] After oral gavage, the rats were placed in rats metabolic cages, and urine was collected after 24 h, and the urine volume was recorded, the urine sugar concentration was determined, and urinary sugar content was calculated according to the following formula. Urine content=urinary sugar concentration×urine volume
Glucose levels in urine are measured by the glucose assay kit.
Data were expressed as mean±standard deviation (x±s), and Student's t test was used for statistical analysis of the data, p<0.05 was considered statistically significant.

Structure (SMILES)	inhibition at 0.01 µM [1] [%]	inhibition at 0.1 µM [1] [%]	IC50 [1] [nM]	IC50 [2] [nM]	The total amount of glucose excreted ([3]; Table 4)	Urine glucose concentration ([3]; Table 4)	Urine volume ([3]; Table 4, in mL)	Selectivity [1]	The total amount of glucose excreted ([3]; Table 3)	Urine glucose concentration ([3]; Table 3)	Urine volume ([3]; Table 3, in mL)
CCc1ccc(Cc2cc3c(cc2C)CO[C@]32O[C@H](C)[C@@H](O)[C@H](O)[C@H]2O)s1 [Example A57, (1S,3′R,4′S,5′S,6′R)-5,6′-dimethyl-6-((5-ethylthienzyl)-2-methyl)-3′,4′,5′,6′-tetrahydro-3H-spiro[isobenzofuran-1,2′-pyran]-3′,4′,5′-triol]	31.1 ± 7.4	95.4 ± 2.8	8.4 ± 0.7	1930 ± 160	786.39 ± 96.43	232.39 ± 50.5	19.17 ± 2.71	–	–	–	–
C[C@H]1O[C@]2(OCc3cc(Cl)c(Cc4cc5ccccc5o4)cc32)[C@H](O)[C@@H](O)[C@@H]1O [Example A36, (1S,3′R,4′S,5′S,6′R)-6′-methyl-6-(benzo[b]furan-2-methyl)-5-chloro-3′,4′,5′,6′-tetrahydro-3H-spiro[isobenzofuran-1,2′-pyran]-3′,4′,5′-triol]	24.4 ± 8.8	103 ± 3.7	32.4 ± 8.2	5400 ± 660	–	–	–	166	–	–	–
C[C@H]1O[C@]2(OCc3cc(Cl)c(Cc4ccc(CCO)s4)cc32)[C@H](O)[C@@H](O)[C@@H]1O [Example A119, (1S,3′R,4′S,5′S,6′R)-5-chloro-6-((5-(2-hydroxyethyl)thiophene-2-yl)methyl)-6′-methyl-3′,4′,5′,6′-tetrahydro-3H-spiro[isobenzofuran-1,2′-pyran]-3′,4′,5′-triol]	22 ± 3.1	80 ± 2.7	3.6 ± 0.8	600 ± 80	–	–	–	167	–	–	–
CCc1ccc(Cc2cc3c(cc2Cl)CO[C@]32O[C@H](C)[C@@H](O)[C@H](O)[C@H]2O)cc1 [Example A22, (1S,3′R,4′S,5′S,6′R)-6′-methyl-6-(4-ethylbenzyl)-5-chloro-3′,4′,5′,6′-tetrahydro-3H-spiro[isobenzofuran-1,2′-pyran]-3′,4′,5′-triol]	25 ± 3.1	79.8 ± 8.5	29.7 ± 18.4	410 ± 50	–	–	–	13	–	–	–
CCc1ccc(Cc2ccc3c(c2)[C@]2(OC3)O[C@H](C)[C@@H](O)[C@H](O)[C@H]2O)cc1 [Example A2, (1S,3′R,4′S,5′S,6′R)-6′-methyl-6-(4-ethylbenzyl)-3′,4′,5′,6′-tetrahydro-3H-spiro[isobenzofuran-1,2′-pyran]-3′,4′,5′-triol]	51.4 ± 2.1	62.6 ± 2	63.5 ± 7.1	22300 ± 4260	–	–	–	351	–	–	–
CCOc1ccc(Cc2cc3c(cc2Cl)CO[C@]32O[C@H](C)[C@@H](O)[C@H](O)[C@H]2O)cc1 [Example A26, (1S,3′R,4′S,5′S,6′R)-6′-methyl-6-(4-ethoxybenzyl)-5-chloro-3′,4′,5′,6′-tetrahydro-3H-spiro[isobenzofuran-1,2′-pyran]-3′,4′,5′-triol]	51.5 ± 10.7	90.5 ± 4.1	15.7 ± 2.1	920 ± 90	–	–	–	58	–	–	–
CCc1ccc(Cc2cc3c(cc2F)CO[C@]32O[C@H](C)[C@@H](O)[C@H](O)[C@H]2O)s1 [Example A42, (1S,3′R,4′S,5′S,6′R)-6′-methyl-6-((5-ethylthienyl)-2-methyl)-5-fluoro-3′,4′,5′,6′-tetrahydro-3H-spiro[isobenzofuran-1,2′-pyran]-3′,4′,5′-triol]	62.4 ± 11.8	104 ± 2.8	26.7 ± 2	25900 ± 4290	2.56 ± 2.37	0.82 ± 0.73	18.5 ± 3.51	988	–	–	–
COCCc1ccc(Cc2cc3c(cc2Cl)CO[C@]32O[C@H](C)[C@@H](O)[C@H](O)[C@H]2O)s1 [Example A114, (1S,3′R,4′S,5′S,6′R)-5-chloro-6-((5-(2-methoxyethyl)thiophene-2-yl)methyl)-6′-methyl-3-3′,4′,5′,6′-tetrahydro-3H-spiro[isobenzofuran-1,2′-pyran]-3′,4′,5′-triol]	18.3 ± 2.2	71.4 ± 2.8	43.5 ± 11.3	3600 ± 260	–	–	–	83	–	–	–
CC(O)c1ccc(Cc2cc3c(cc2Cl)CO[C@]32O[C@H](C)[C@@H](O)[C@H](O)[C@H]2O)s1 (stereo partly drawn) [Example A118, (1S,3′R,4′S,5′S,6′R)-5-chloro-6-((5-(1-hydroxyethyl)thiophene-2-yl)methyl)-6′-methyl-3′,4′,5′,6′-tetrahydro-3H-spiro[isobenzofuran-1,2′-pyran]-3′,4′,5′-triol]	22.1 ± 3	91.8 ± 3.5	43.4 ± 12.9	7200 ± 600	–	–	–	166	–	–	–
C[C@H]1O[C@]2(OCc3cc(Cl)c(Cc4ccc(-c5ccc(F)cc5)s4)cc32)[C@H](O)[C@@H](O)[C@@H]1O [Example A31]	67.5 ± 5.7	91.5 ± 11.7	3.6 ± 0.7	70100 ± 7900	–	–	–	19483	9.41 ± 6.18	1.50 ± 0.60	33.13 ± 9.99
C[C@H]1O[C@]2(OCc3cc(Cl)c(Cc4cc5ccccc5s4)cc32)[C@H](O)[C@@H](O)[C@@H]1O [Example A35, (1S,3′R,4′S,5′S,6′R)-6′-methyl-6-(benzo[b]thiophene-2-methyl)-5-chloro-3′,4′,5′,6′-tetrahydro-3H-spiro[isobenzofuran-1,2′-pyran]-3′,4′,5′-triol]	22.4 ± 7.5	95.7 ± 2	24 ± 2.4	1950 ± 130	–	–	–	81	–	–	–
